According to patent US20240350649A1, “TREATMENT AND DIAGNOSIS OF IMMUNE DISORDERS RELATING TO ABERRANT IMMUNE CELLS” (Octagon Therapeutics, Inc., priority 2021, published 2024):
“Also recorded” adds a separate entry of the source.

Assays:
Type in all cases: cell-based
[1] = test system: primary CD3+ T lymphocytes; experiment: Mixed-cell assay, T lymphocytes in mixed PBMC population by flow cytometry; details: up to 50 μM; healthy, PV and SLE plasma; FIG. 5F
Protocol: (§1) 0.5×10^6 primary cells (purified CD19+ primary B cells (Precision for Medicine, MD) or 0.5×10^6 CD3+ primary T cells (Precision for Medicine, MD Primary PBMCs (Precision for Medicine, MD) from a healthy donor were stimulated with 10% v/v plasma from either a healthy donor, a pemphigus vulgaris (PV) donor, or a systemic lupus erythematosus (SLE) donor for 24 hours at 37 C, 5% CO2. Compound OTG177 was added at 1 μM, 10 μM and 50 μM concentrations with DMSO as a mock treatment. After 24 hours-72 hours of treatment, cells were labeled with anti-CD45 antibody (5 μl/million cells in 100 μl volume, clone HI30, BUV395, Biolegend, CA), anti-CD19 antibody (5 μl per million cells in 100 μl volume, Clone HIB, PE-CF594, Biolegend, CA) anti-CD3 antibody (5 μl/million cells in 100 μl volume, clone SK7, FITC, Biolegend, CA). Propidium (1 μg/ml) was used to select cells based on their viability. The cells were analyzed by multi-colored flow cytometry using an Attune NxT Flow Cytometer (ThermoFisher).
(§2) In addition, the effect of OTG177 on B and T lymphocytes was examined by first gating all PBMCs by forward scattering (FSC) versus side scattering (SSC) and isolating the low SSC and high FSC population (FIG. 5C), gating on this selection, the populations of segregated based on their staining to CD19 (red) and CD3 antibodies (green) (FIG. 5D).

CD3+ primary T cells = experiment: BrdU incorporation proliferation assay, primary T cells stimulated with donor plasma; details: OTG177 up to 1000 μM, 72 hours
Protocol: (§3) 0.5×10^6 primary cells (purified CD19+ primary B cells, Precision for Medicine, MD) or 0.5×10^6 CD3+ primary T cells (Precision for Medicine, MD) from a healthy donor were assayed for their rate of proliferation via the BrdU incorporation method (Roche kit 11647229001), following vendor protocols. In brief, BrdU was added to cell culture for 2 hours-12 hours. The cells were dried with hot air ventilation and fixed with saline and ethanol. The incorporated BrdU was measured with an ELISA assay with an anti BrdU antibody (Roche).
(§4) A representative compound according to the disclosure, OTG177 (FIG. 4), was constructed according to the synthetic scheme shown in FIGS. 2A and 2B using the Bait CD10 substrate succinyl-Ala-Ala-Phe- and an antiproliferative Payload RMP. This compound was tested in this proliferation assay as follows: negative selected lymphocytes (either B or T cells) were incubated with different concentration of OTG177 up to 1000 μM with 10% plasma from either a healthy donor or a flaring Pemphigus Vulgaris donor. All conditions had 30 units/ml of heparin to prevent clotting of the plasma. Cells were incubated for 72 hours at 37° C. 5% CO2 and a BrdU incorporation assay was performed with kit (Roche) as described before.

CD19+ primary B cells = experiment: BrdU incorporation proliferation assay, primary B cells stimulated with donor plasma; details: OTG177 up to 1000 μM, 72 hours
Protocol: as §3, §4

[2] = test system: PBMC (granulocytes, monocytes, lymphocytes); experiment: Mixed-cell assay, PBMC composition by flow cytometry (SSC vs CD45); details: up to 50 μM; healthy, PV or SLE donor plasma; FIG. 5B
Protocol: as §1
Overall peripheral blood mononuclear cell (PBMC) composition was evaluated by gating side scattering (SSC) versus CD45, a pan leukocyte marker (FIG. 5A). This gating strategy can differentiate different leukocyte populations based on their scattering profiles.

[3] = test system: primary CD19+ B lymphocytes; experiment: Mixed-cell assay, B lymphocytes in mixed PBMC population by flow cytometry; details: FIG. 5E; for suppression of B cell proliferation in mixed PBMC population: 1 μM to 50 μM range
Protocol: as §1, §2

C[C@H](NC(=O)CCC(=O)O)C(=O)N[C@@H](C)C(=O)N[C@@H](Cc1ccccc1)C(=O)Nc1ccc2c(c1)COP(=O)(OC[C@H]1O[C@@H](n3cnc(C(N)=O)n3)[C@H](O)[C@@H]1O)O2 (stereo partly drawn) [OTG177, 4-[[(1S)-2-[[(1S)-2-[[(1S)-1-benzyl-2-[[2-[[(2R,3S,4R,5R)-5-(3-carbamoyl-1,2,4-triazol-1-yl)-3,4-dihydroxy-tetrahydrofuran-2-yl]methoxy]-2-oxo-4H-1,3,2benzodioxaphosphinin-6-yl]amino]-2-oxo-ethyl]amino]-1-methyl-2-oxo-ethyl]amino]-1-methyl-2-oxo-ethyl]amino]-4-oxo-butanoic Acid]
effect on T cells in mixed PBMC population [1]: not affected; also recorded: no obvious effect | antiproliferative activity in T cells (CD3+ primary T cells; 10% flaring pemphigus vulgaris donor's plasma, FIG. 4E): did not exhibit antiproliferative activity | antiproliferative activity in T cells (CD3+ primary T cells; 10% healthy donor's plasma, FIG. 4D): did not exhibit antiproliferative activity | antiproliferative activity in B cells (CD19+ primary B cells; 10% flaring pemphigus vulgaris donor's plasma, FIG. 4C): strong antiproliferative activity | antiproliferative activity in B cells (CD19+ primary B cells; 10% healthy donor's plasma, FIG. 4B): did not exhibit detectable antiproliferative activity | effect on PBMC composition (% granulocytes, monocytes, lymphocytes) [2]: not affected; also recorded: does not have obvious effects | suppression of B cell proliferation in mixed PBMC population ([3]; stimulated with PV plasma): dose-dependent suppression; also recorded: suppressive effect | suppression of B cell proliferation in mixed PBMC population ([3]; stimulated with SLE plasma): dose-dependent suppression; also recorded: suppressive effect | effect on B cells in mixed PBMC population ([3]; stimulated with healthy plasma, 1, 10, 50 μM): not affected
